Values quoted from earlier work in patent US11419915B2, “Compositions and methods for the treatment of malnutrition” (VitalneXt B.V., priority 2015, dated 2022).

Conditions: dose of 80 mg/kg bodyweight ursolic acid from an ethanolic extract of Sambucus chinensis; rat plasma

- oral bioavailability: 0.6%
Structure (SMILES): C[C@H]1[C@H](C)CC[C@]2(C(=O)O)CC[C@]3(C)C(=CC[C@@H]4[C@@]5(C)CC[C@H](O)C(C)(C)[C@@H]5CC[C@]43C)[C@H]12 [ursolic acid, 3-beta-3-hydroxy-urs-12-ene-28-oic-acid]
